# Experimental data: patent US20260234135A1, “CRYSTALLINE FORMS OR SALTS OF A DEUTERATED COMPOUND” (ALEBUND PHARMACEUTICALS (HONG KONG) LIMITED, priority 2023, published 2026)
# Read-outs that look alike come from different tables or passages of the source.
# Assays:
# [1] = Hygroscopicity evaluation by DVS at 25° C.; assay type: physicochemical; details: for Form change after DVS test: XRPD after DVS
# Description: DVS was measured via a SMS (Surface Measurement Systems) DVS Intrinsic. The relative humidity at 25° C. were calibrated against deliquescence point of LiCl, Mg(NO3)2 and KCl.
# [2] = for Form or purity change after storage: 60° C./close and 40° C./75% RH/open for 2/4/8 weeks
Compound,"Water uptake up to 80% RH ([1]; DVS, 25° C.) [%]",Form change after DVS test [1],"Area (%) of impurity peak RRT 1.34 ([2]; 40° C./75% RH, 2 weeks) [%]","Area (%) of impurity peak RRT 1.34 ([2]; 40° C./75% RH, 4 weeks) [%]","Area (%) of impurity peak RRT 1.34 ([2]; 40° C./75% RH, 8 weeks) [%]","HPLC Purity (area %), main peak RRT 1.00 ([2]; 40° C./75% RH/open, 2 weeks) [area %]","HPLC Reults of initial (%) ([2]; 40° C./75% RH/open, 2 weeks)","HPLC Purity (area %), main peak RRT 1.00 ([2]; 40° C./75% RH/open, 4 weeks) [area %]","HPLC Reults of initial (%) ([2]; 40° C./75% RH/open, 4 weeks)","HPLC Purity (area %), main peak RRT 1.00 ([2]; 40° C./75% RH/open, 8 weeks) [area %]","HPLC Reults of initial (%) ([2]; 40° C./75% RH/open, 8 weeks)","Area (%) of impurity peak RRT 0.88 ([2]; 60° C., 2 weeks) [%]","Area (%) of impurity peak RRT 1.34 ([2]; 60° C., 2 weeks) [%]","Area (%) of impurity peak RRT 0.88 ([2]; 60° C., 4 weeks) [%]","Area (%) of impurity peak RRT 1.34 ([2]; 60° C., 4 weeks) [%]","Area (%) of impurity peak RRT 0.88 ([2]; 60° C., 8 weeks) [%]","Area (%) of impurity peak RRT 1.34 ([2]; 60° C., 8 weeks) [%]",Form or purity change after storage [2],"HPLC Purity (area %), main peak RRT 1.00 ([2]; 60° C./close, 2 weeks) [area %]","HPLC Reults of initial (%) ([2]; 60° C./close, 2 weeks)",further results
N=C(N)NCCCC(N)C(=O)O.[2H]C([2H])(Cc1nc(-c2ccccc2)oc1C)Oc1ccc(C[C@H](OC)C(=O)O)c2sccc12 [arginine salt Form A],0.5,No form change,0.22,0.19,0.19,99.59,99.87,99.70,99.98,99.74,100.02,0.06,0.18,0.09,0.18,0.06,0.18,No form or purity decrease,99.76,100.04,"Hygroscopicity ([1]; DVS, 25° C.): slightly hygroscopicity; Area (%) of impurity peak RRT 0.88 ([2]; 40° C./75% RH, 2 weeks): 0.14%; Area (%) of impurity peak RRT 1.14 ([2]; 40° C./75% RH, 2 weeks): 0.06%; Area (%) of impurity peak RRT 0.88 ([2]; 40° C./75% RH, 4 weeks): 0.11%; Area (%) of impurity peak RRT 0.88 ([2]; 40° C./75% RH, 8 weeks): 0.07%; Area (%) of impurity peak RRT 0.81 ([2]; 60° C., 8 weeks): 0.05%; HPLC Purity (area %), main peak RRT 1.00 ([2]; 60° C./close, 4 weeks): 99.73 area %; HPLC Reults of initial (%) ([2]; 60° C./close, 4 weeks): 100.01%; HPLC Purity (area %), main peak RRT 1.00 ([2]; 60° C./close, 8 weeks): 99.71 area %; HPLC Reults of initial (%) ([2]; 60° C./close, 8 weeks): 99.99%; Area (%) of impurity peak RRT 0.88 ([2]; Initial): 0.07%; Area (%) of impurity peak RRT 1.34 ([2]; Initial): 0.20%; HPLC Purity (area %), main peak RRT 1.00 ([2]; Initial): 99.72 area %"
[2H]C([2H])(Cc1nc(-c2ccccc2)oc1C)Oc1ccc(C[C@H](OC)C(=O)[O-])c2sccc12.[K+] [K salt Form C],12.0,form change was observed,0.24,0.25,0.25,99.76,100.01,99.75,100.00,99.75,100.00,0.10,0.26,0.08,0.24,0.09,0.24,No purity decrease but form change,99.57,99.82,"Area (%) of impurity peak RRT 1.14 ([2]; 60° C., 2 weeks): 0.07%; Area (%) of impurity peak RRT 1.14 ([2]; 60° C., 4 weeks): 0.04%; HPLC Purity (area %), main peak RRT 1.00 ([2]; 60° C./close, 4 weeks): 99.64 area %; HPLC Reults of initial (%) ([2]; 60° C./close, 4 weeks): 99.89%; HPLC Purity (area %), main peak RRT 1.00 ([2]; 60° C./close, 8 weeks): 99.67 area %; HPLC Reults of initial (%) ([2]; 60° C./close, 8 weeks): 99.92%; Area (%) of impurity peak RRT 1.34 ([2]; Initial): 0.25%; HPLC Purity (area %), main peak RRT 1.00 ([2]; Initial): 99.75 area %"
